Assay results as given in patent US20220023471A1, “PROCESS FOR DISINFECTION AND PROTECTING SURFACES FROM CONTAMINATION” (GERMINATOR MOBILE SANITIZING, LLC, priority 2020, published 2022).

Legend:
Test in all cases: Microorganism Efficacy Test (percent reduction in culture)
Assay type in all cases: cell-based
[1] = test system: E. Coli ATCC 8739; settings: time point 60 seconds
Procedure: (§1) Example 1: A Microorganism Efficacy Test for Step One using Hypochlorous acid was tested against a range of different germs and bacteria to determine its efficacy. The hypochlorous acid was added to cultures of the listed microorganisms and left for the indicated amount of time. The percent reduction of each microorganism was measured after the time period had elapsed and the results are shown below in Table 1.

[2] = test system: S. aureus ATCC 6538; settings: time point 60 seconds
Procedure: as §1

[3] = test system: Pseudomonas aeruginosa ATCC 9027; settings: time point 60 seconds
Procedure: as §1

[4] = test system: Staphylococcus arureus (MRSA) ATCC 33592; settings: time point 15 seconds
Procedure: as §1

[5] = test system: Enterococcus faecalis (VRE) ATCC 51299; settings: time point 15 seconds
Procedure: as §1

[6] = test system: Propionibacterium Acnes ATCC 6919; settings: time point 60 seconds
Procedure: as §1

[7] = test system: Listeria Monocytogens ATCC 15313; settings: time point 60 seconds
Procedure: as §1

[8] = test system: Candida albicans ATCC 1023; settings: time point 60 seconds
Procedure: as §1

[9] = test system: C Difficile ATCC 43598; settings: time point 60 seconds
Procedure: as §1

[10] = test system: Acinetobacter baumannii ATCC 19606; settings: time point 15 seconds
Procedure: as §1

[11] = test system: Serratia marscesens ATCC 14756; settings: time point 15 seconds
Procedure: as §1

[12] = test system: K. pneumonia (CRE) ATCC BAA-2146; settings: time point 60 seconds
Procedure: as §1

[13] = test system: A brasiliensis ATCC 16404; settings: time point 60 seconds
Procedure: as §1

[14] = test system: Proteus mirabilis ATCC7002; settings: time point 15 seconds
Procedure: as §1

OCl [Hypochlorous acid]
% REDUCTION [1]: >99.999%
% REDUCTION [2]: >99.999%
% REDUCTION [3]: >99.999%
% REDUCTION [4]: >99.999%
% REDUCTION [5]: 100%
% REDUCTION [6]: >99.99%
% REDUCTION [7]: >99.96%
% REDUCTION [8]: >99.9999%
% REDUCTION [9]: >100%
% REDUCTION [10]: 100%
% REDUCTION [11]: >99.999%
% REDUCTION [12]: >99.9994%
% REDUCTION [13]: >99.999%
% REDUCTION [14]: >99.999%
